Reference: PubChem BioAssay (NCI)
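Test compounds were applied to cells in 96-well plates for 48 hours at 5 doses. GI50 marks 50% less growth. At the TGI there is no net growth.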

Assays:
Assay in all cases: inhibition of tumour cell growth, NCI panel, 48 h
[1] = tested on: SF-295 CNS
[2] = tested on: IGROV1 ovarian
[3] = tested on: 786-0 renal
[4] = tested on: NCI-H460 lung
[5] = tested on: SW-620 colon
[6] = tested on: SK-OV-3 ovarian
[7] = tested on: DU-145 prostate
[8] = tested on: SR leukemia
[9] = tested on: MDA-MB-435
[10] = tested on: BT-549 breast

## O=C(N/N=C(/c1nc2ccc(Cl)cc2[nH]c1=O)C(O)c1ccc(Cl)cc1Cl)c1ccncc1 (stereo not drawn)
[1]
  TGI: > 100 µM
[2]
  TGI: > 100 µM
[3]
  TGI: > 100 µM
[4]
  TGI: > 100 µM
[5]
  TGI: > 100 µM
[6]
  TGI: > 100 µM

## CCOC(=O)c1sc(-c2ccc(OS(=O)(=O)c3cccs3)c(C=O)c2)nc1C
[1]
  GI50: 1.72 µM
  TGI: 3.36 µM
[2]
  GI50: 1.29 µM
  TGI: 3.41 µM
[3]
  GI50: 1.86 µM
  TGI: 4.54 µM
[4]
  GI50: 2.22 µM
  TGI: 4.96 µM
[7]
  GI50: 2.43 µM
  TGI: 6.78 µM
[6]
  GI50: 3.25 µM
  TGI: 7.79 µM
[8]
  GI50: 1.82 µM
  TGI: > 100 µM
[9]
  GI50: 1.59 µM
  TGI: 3.05 µM
[10]
  GI50: 1.68 µM
  TGI: 3.19 µM

## O=C(c1ccccc1)C1C(C(=O)c2ccccc2)N1Cc1ccccc1 (stereo not drawn)
[1]
  TGI: > 100 µM
[2]
  TGI: > 100 µM
[3]
  TGI: > 100 µM
[4]
  TGI: > 100 µM
[7]
  TGI: 85.8 µM
[5]
  TGI: > 100 µM
[6]
  TGI: > 100 µM
[9]
  TGI: 68.3 µM
[10]
  TGI: 72 µM

## Cn1cnc([N+](=O)[O-])c1Sc1ccccn1
[1]
  TGI: > 100 µM
[2]
  TGI: > 100 µM
[3]
  TGI: > 100 µM
[4]
  TGI: > 100 µM
[5]
  TGI: > 100 µM
[6]
  TGI: > 100 µM
[8]
  TGI: > 100 µM

## CCOC1OCCCC1Br (stereo not drawn)
[1]
  TGI: > 100 µM
[2]
  TGI: > 100 µM
[3]
  TGI: > 100 µM
[4]
  TGI: > 100 µM
[7]
  TGI: > 100 µM
[5]
  TGI: > 100 µM
[6]
  TGI: > 100 µM
[8]
  TGI: > 100 µM
[9]
  TGI: > 100 µM

## COc1ccccc1/C=C\c1cnnc2ccccc12
[1]
  TGI: > 10 µM
[2]
  TGI: > 10 µM
[3]
  TGI: > 10 µM
[4]
  TGI: > 10 µM
[7]
  TGI: > 10 µM
[5]
  TGI: > 10 µM
[6]
  TGI: > 10 µM
[9]
  TGI: > 10 µM
[10]
  TGI: > 10 µM

## S=c1nc(-c2ccccc2)oc(=NC2CCCCC2)n1C1CCCCC1
[1]
  GI50: 4.07 µM
  TGI: 37.4 µM
[2]
  GI50: 3 µM
  TGI: 8.13 µM
[3]
  GI50: 4.46 µM
  TGI: 16.2 µM
[4]
  GI50: 2.93 µM
  TGI: 10.2 µM
[7]
  GI50: 3.26 µM
  TGI: 10.3 µM
[5]
  GI50: 3.78 µM
  TGI: 14.6 µM
[6]
  GI50: 5.05 µM
  TGI: > 100 µM
[9]
  GI50: 3.36 µM
  TGI: 8.82 µM

## COC(=O)c1c[nH]c(=O)[nH]c1=O
[1]
  TGI: > 100 µM
[2]
  TGI: > 100 µM
[3]
  TGI: > 100 µM
[4]
  TGI: > 100 µM
[7]
  TGI: > 100 µM
[5]
  TGI: > 100 µM
[8]
  TGI: > 100 µM
[9]
  TGI: > 100 µM

## O=c1[nH]cc(CS(=O)(=O)Cc2c[nH]c(=O)[nH]c2=O)c(=O)[nH]1
[1]
  TGI: > 100 µM
[2]
  TGI: > 100 µM
[3]
  TGI: > 100 µM
[4]
  TGI: > 100 µM
[7]
  TGI: > 100 µM
[5]
  TGI: > 100 µM
[8]
  TGI: > 100 µM
[9]
  TGI: > 100 µM
[10]
  TGI: > 100 µM

## CCC1C(C)c2c([nH]c3ccccc23)C2C(=O)N(c3ccccc3)C(=O)C21 (stereo not drawn)
[1]
  TGI: 32.3 µM
[2]
  TGI: 22.3 µM
[3]
  TGI: 34.5 µM
[4]
  TGI: 28.2 µM
[5]
  TGI: 35.9 µM
[6]
  TGI: 44.1 µM
[8]
  TGI: 47.3 µM

## O=NC1c2cccc3cccc(c23)C1N=O (stereo not drawn)
[1]
  TGI: 24.8 µM
[2]
  TGI: 3.19 µM
[3]
  TGI: 30.5 µM
[4]
  TGI: 17.5 µM
[7]
  TGI: > 100 µM
[5]
  TGI: 12.7 µM
[6]
  TGI: 43.7 µM
[9]
  TGI: 25.7 µM
[10]
  TGI: 15.6 µM

## Cc1ccc(S(=O)(=O)N(/N=C(\N)Oc2ccc(Cl)cc2)C(=N)Oc2ccc(Cl)cc2)cc1
[1]
  TGI: > 100 µM
[2]
  TGI: > 100 µM
[3]
  TGI: > 100 µM
[4]
  TGI: > 100 µM
[5]
  TGI: > 100 µM
[6]
  TGI: > 100 µM
[8]
  TGI: > 100 µM

## Oc1ccc2oc3ncc(Cl)c(-c4ccccc4)c3c2c1
[1]
  GI50: > 100 µM
  TGI: > 100 µM
[2]
  GI50: > 100 µM
  TGI: > 100 µM
[3]
  GI50: 0.0939 µM
  TGI: > 100 µM
[4]
  GI50: > 100 µM
  TGI: > 100 µM
[7]
  GI50: > 100 µM
  TGI: > 100 µM
[5]
  GI50: > 100 µM
  TGI: > 100 µM
[6]
  GI50: > 100 µM
  TGI: > 100 µM
[9]
  GI50: > 100 µM
  TGI: > 100 µM

## O=C(CC(=O)N1N=C(c2ccccc2)C(N=Nc2ccc(C(=O)O)cc2)C1=O)Nc1ccc(F)cc1 (stereo not drawn)
[1]
  TGI: > 100 µM
[2]
  TGI: 80.5 µM
[3]
  TGI: 63 µM
[4]
  TGI: > 100 µM
[5]
  TGI: > 100 µM
[6]
  TGI: 62.6 µM

## Cn1c2ccccc2c(=Nc2ccccc2)c2c3ccccc3[nH]c21
[1]
  GI50: 1.03 µM
  TGI: 2.22 µM
[2]
  GI50: 1.64 µM
  TGI: > 100 µM
[3]
  GI50: 1.33 µM
  TGI: 2.63 µM
[4]
  GI50: 0.41 µM
  TGI: 1.49 µM
[7]
  GI50: 1.74 µM
  TGI: 4.36 µM
[5]
  GI50: 1.09 µM
  TGI: 2.9 µM
[6]
  GI50: 2.16 µM
  TGI: 5.08 µM
[9]
  GI50: 1.84 µM
  TGI: 3.32 µM
[10]
  GI50: 3.15 µM
  TGI: 7.13 µM

## Cc1nc(C)c(C(=O)Nc2cccc3c2C(=O)NC3=O)cc1C(=O)Nc1cccc2c1C(=O)NC2=O
[1]
  TGI: > 100 µM
[2]
  TGI: > 100 µM
[3]
  TGI: > 100 µM
[4]
  TGI: > 100 µM
[5]
  TGI: > 100 µM
[6]
  TGI: > 100 µM
[8]
  TGI: > 100 µM

## N/C(=N\NS(=O)(=O)c1ccccc1)Oc1ccc(Cl)cc1
[1]
  TGI: > 100 µM
[2]
  TGI: > 100 µM
[3]
  TGI: > 100 µM
[4]
  TGI: > 100 µM
[5]
  TGI: 19.5 µM
[6]
  TGI: > 100 µM
[8]
  TGI: > 100 µM

## O=C(O)c1c(O)c2cc(Br)ccc2oc1=O
[1]
  TGI: > 100 µM
[2]
  TGI: > 100 µM
[3]
  TGI: > 100 µM
[4]
  TGI: > 100 µM
[7]
  TGI: > 100 µM
[5]
  TGI: > 100 µM
[8]
  TGI: > 100 µM
[9]
  TGI: > 100 µM
[10]
  TGI: > 100 µM

## COc1ccc(SC2c3cc(OC)c(OC)cc3Oc3nc(N)c(C#N)c(N)c32)cc1 (stereo not drawn)
[1]
  GI50: 1.6 µM
  TGI: 2.96 µM
[2]
  GI50: 0.762 µM
  TGI: 2.37 µM
[3]
  GI50: 0.493 µM
  TGI: 1.73 µM
[4]
  GI50: 1.66 µM
  TGI: 4.38 µM
[7]
  GI50: 1.73 µM
  TGI: 3.11 µM
[5]
  GI50: 1.24 µM
  TGI: 3.2 µM
[6]
  GI50: 1.81 µM
  TGI: 3.2 µM
[9]
  GI50: 1.5 µM
  TGI: 2.92 µM
[10]
  GI50: 1.02 µM
  TGI: 2.19 µM

## O=C(c1cc(O)ccc1O)c1ccccc1C(Cl)(Cl)Cl
[1]
  TGI: > 100 µM
[2]
  TGI: > 100 µM
[3]
  TGI: > 100 µM
[4]
  TGI: > 100 µM
[5]
  TGI: > 100 µM
[6]
  TGI: > 100 µM
[8]
  TGI: > 100 µM

## COc1ccc(C2OC(=O)c3c2ccc2ccccc32)c(C)c1 (stereo not drawn)
[2]
  TGI: > 100 µM
[3]
  TGI: 18.1 µM
[4]
  TGI: > 100 µM
[5]
  TGI: > 100 µM
[8]
  TGI: > 100 µM
[10]
  TGI: 69.4 µM
